# From patent US12527768B2, “Compositions comprising an anti-inflammatory drug and a dicer activator for use in the treatment of neuronal diseases” (NeuroSense Therapeutics Ltd., priority 2017, dated 2026)
# Where “and” joins values, the source holds several entries; their conditions need not be identical. Identical values can stand only once. Entries after “also recorded” stand apart in the source; their conditions may differ.
# Tests used:
# [1] = tested on: chronic electrode-implanted rats; conditions: cited from earlier work; for EEG and behavior after intraventricular injection: relatively high dose
# [2] = tested on: SOD1 G93R mutant zebrafish larvae; experiment: Toxicity analysis of larvae (morphology, cardiovascular system, behavior, mortality); type: in vivo, zebrafish (Danio rerio)
# Method: (§1) Treatment protocol SOD1 G93R mutant or WT fish were collected and raised according to accepted and approved protocols, see Westerfield M. The Zebrafish Book: a Guide for the Laboratory Use of Zebrafish (Danio rerio) 2000, incorporated herein as reference. Larvae's morphology was observed (heart rate, overall morphology and behavior) at each day.
# Toxicity analysis Fish were observed during the day of administration and the following days to observe toxicity. Acute toxicity was evaluated for apoptosis/necrosis and cardiovascular system abnormalities (heart rate, morphology, hemorrhage and edema). Head, eyes and overall morphological and behavioral toxicity were recorded according to accepted procedures^28.
# [3] = tested on: cytochrome P450 (CYP450) 2C9 and 3A4; conditions: cited from earlier work
# [4] = tested on: SOD1 G93R mutant zebrafish larvae; experiment: Behavioral analysis (DanioVision): locomotor activity, distance moved; type: in vivo, zebrafish (Danio rerio); conditions: for distance moved, elevation compared to non-treated SOD1 mutant, whole period of measurement: 6 dpf larvae; for distance moved compared to non-treated SOD1 mutant, whole experiment: 10 μM in swimming water; for effect on locomotor activity during all three experimental phases: spontaneous swimming, light/dark challenge, recovery from challenge
# Description: as §1
# Two-hundred and forty (240) larvae were selected from the same laying batch to be introduced to three distinct treatments and a control (n=60 per each treatment). First and second treatments were conducted at 3 and 5 days post fertilization (dpf), respectively, when the blood brain barrier (BBB) is fully closed, and the motor neurons (MNs) and neuromuscular junctions (NMJs) are fully developed. The materials were administrated in the swimming water (DB). At day 6, larvae were taken to behavioral analysis using the automated DanioVision™ system. Following analysis, larvae were fixed and whole-mount immunohistochemistry procedure was conducted to be used for high resolution morphological analysis. Treatment protocol is detailed in FIG. 1.
# Behavioral analysis DanioVision™, an automated high-throughput tracking system of zebrafish larvae from Noldus Information Technology (Wageningen, the Netherlands), including control of light and dark conditions was used for the measurements and analysis of the results. Each single larvae was put in a single well, with the same volume of swimming water to ensure uniform background. Each animal was tested for its x,y position using dynamic subtraction 30 times per second. The distance each larvae moved in mm was calculated from the x,y position and averaged per time bin of 1 minute (average of 1800 measurements per each 1 minute). The behavioral profile was measured in 3 phases according to changes in environment that we applied, to introduce additional muscle and neurological stress. Spontaneous swimming, light/dark challenge (opto-kinetic response) and recovery from challenge behaviors were recorded and analyzed. All animals from the same treatment: wild type (WT), SOD1 mutant non-treated or treated were averaged per time bin of 1 minute to examine their reaction to additional stress, and then calculated for the whole period of time to get a relative number compared to the non-treated SOD1 mutant swimming behavior. Statistical analysis used was paired Student's t-tests (two-tailed) with two-sample assuming unequal variances. All P-values reported are two-tailed and the significance level was set at 0.05 (*), 0.01 to 0.001 (**) and below 0.001 (***).
# [5] = tested on: RNAi; conditions: cited from earlier work
# [6] = tested on: Pseudomonas aeruginosa; conditions: cited from earlier work
# [7] = tested on: ALS mouse models; conditions: enhancement of DICER activity; cited from earlier work
# [8] = tested on: ALS patients; conditions: clinical trial; cited from earlier work
# [9] = tested on: inhibitory interneurons of SOD1 mutants; conditions: 1 μM; cited from earlier work
# [10] = 100 μM in swimming water, 0.1% DMSO
# [11] = 100 μM, recovery from challenge phase
# [12] = 100 μM, spontaneous swimming phase
compound,measurement,setting,value
CC(=O)Oc1ccccc1C(=O)O.NCCCCC(N)C(=O)O (racemic) [aspirin DL-lysine],EEG and behavior after intraventricular injection,[1],spike and wave complex in EEG without showing remarkable behavioral changes
Cc1ccc(-c2cc(C(F)(F)F)nn2-c2ccc(S(N)(=O)=O)cc2)cc1 [Celecoxib],toxicity at high concentration,"[2]; 30 μM, 0.3% DMSO, SOD1 mutants and WT",cardiovascular toxicity and death
same,toxicity at lower concentrations,[2]; below 10 μM (0.3% DMSO) / 5 μM (0.1% DMSO),no toxicity was evident
same,metabolism in vivo,[3],oxidized by cytochrome P450 (CYP450) 2C9 and 3A4 to the inactive metabolite hydroxycelecoxib
same,"distance moved, elevation compared to non-treated SOD1 mutant, whole period of measurement",[4]; 1 μM in swimming water,6%
same,locomotor effect of Celecoxib at 5 μM,"[4]; 5 μM, 0.1% DMSO background",subtle locomotor decline; also recorded: reduction in locomotor ability
same,locomotor effect of Celecoxib at 10 μM,"[4]; 10 μM, 0.3% DMSO background",subtle locomotor decline; also recorded: Subtle locomotor reduction
O=C(O)c1cn(C2CC2)c2cc(N3CCNCC3)c(F)cc2c1=O [Ciprofloxacin],RNAi-enhancing activity,[5],substantial RNAi-enhancing activity
same,potency against Pseudomonas aeruginosa among quinolones,[6],most potent quinolone
same,"distance moved compared to non-treated SOD1 mutant, whole experiment",[4]; 0.1% DMSO,did not significantly affect locomotor activity; also recorded: not changed
same,effect on locomotor activity during all three experimental phases,[4]; 10 μM,nearly no effect
same,locomotor activity of Ciprofloxacin compared to Enoxacin treatment,"[4]; 100 μM each, spontaneous swimming and recovery from challenge",elevated locomotor activity compared to Enoxacin treatment
same,"distance moved, elevation compared to non-treated SOD1 mutant, whole period of measurement",[4]; [10],18% and 17.8%
same,"locomotor activity, increase vs non-treated SOD1 mutant, recovery from challenge",[4]; [11],33.5%
same,"locomotor activity, increase vs non-treated SOD1 mutant, spontaneous swimming",[4]; [12],26.2%
same,effect on locomotor activity under dark conditions,"[4]; 1, 10, 50, 100, 200 and 500 μM",nearly no effect
same,"locomotor activity in the phase of recovery from stress, dose response","[4]; 50, 100, 200 and 500 μM, second phase of light",dose dependent curve that eventually ended in a plateau
same,effect on spontaneous swimming at high concentrations,"[4]; 200 and 500 μM, spontaneous swimming phase",did not cause elevation in spontaneous swimming
same,most potent concentration in affecting locomotor activity,[4]; tested 1-500 μM,100 µM
CCn1cc(C(=O)O)c(=O)c2cc(F)c(N3CCNCC3)nc21 [Enoxacin],"epileptogenic activity, EEG","[1]; intraventricular, 50 and 100 micrograms",potent epileptogenic activity
same,effect in two independent ALS mouse models,[7],beneficial in vivo
same,drug induced effects in morphology or mortality,"[2]; Enoxacin 10 μM and 100 μM, 0.1% DMSO",no drug induced effects in morphology or mortality were observed
same,"distance moved compared to non-treated SOD1 mutant, whole experiment",[4]; 0.1% DMSO,not changed
same,effect on locomotor activity during all three experimental phases,[4]; 10 μM,nearly no effect
same,"distance moved, elevation compared to non-treated SOD1 mutant, whole period of measurement",[4]; [10],20%
same,"distance moved, elevation compared to non-treated SOD1 mutant, whole period of measurement","[4]; 100 μM in swimming water, 0.1% DMSO, listed as enoxacin",19.9%
same,"locomotor activity, increase vs non-treated SOD1 mutant, light/dark challenge","[4]; 100 μM, light/dark challenge phase",21%
same,"locomotor activity, increase vs non-treated SOD1 mutant, recovery from challenge",[4]; [11],17.6%
same,"locomotor activity, increase vs non-treated SOD1 mutant, spontaneous swimming",[4]; [12],20.1%
CCOC(=O)Cc1ccc(-c2ccccc2)cc1 [Ferubinac ethyl],EEG and behavior after intraventricular injection,[1],spike and wave complex in EEG without showing remarkable behavioral changes
Nc1nc2ccc(OC(F)(F)F)cc2s1 [Riluzole],effect on ALS disease progression,[8],modestly slowed ALS progression
same,neuronal stress in inhibitory interneurons,[9],reduced
same,"distance moved, elevation compared to non-treated SOD1 mutant, whole period of measurement",[4]; 1 μM in swimming water,36% and 36.8%
same,"locomotor activity, increase vs non-treated SOD1 mutant, light/dark challenge","[4]; 1 μM, light/dark challenge phase (10-20 min)",32%
same,"locomotor activity, increase vs non-treated SOD1 mutant, recovery from challenge","[4]; 1 μM, recovery from challenge phase (last 10 minutes)",39.7%
same,"locomotor activity, increase vs non-treated SOD1 mutant, spontaneous swimming","[4]; 1 μM, spontaneous swimming phase (0-10 min)",38%
